# Data reported in patent US20110239327A1, “Nematicidal Effects of Cysteine Proteinases and Methods of Use Thereof to Treat Nematode Infestation” (priority 2007, published 2011).
# Entries after “also recorded” stand apart in the source; their conditions may differ.
# Legend:
# Meloidogyne spp. J2s = experiment: In vitro mobility of Meloidogyne spp. J2s exposed to plant cysteine proteinases; format: cell-based, M. incognita or M. javanica
# Procedure: Eggs of M. incognita race 1 from North Carolina State University, USA, and M. javanica from Portugal were collected from the roots of infected tomato plants grown in a glasshouse at 23° C. in a 16:8 h light-dark regime. Eggs were extracted using 1% hypochlorite (NaClO) solution (Hussey and Barker, 1973) or by picking egg masses from the infected roots. M. incognita and M. javanica were both used in the experiments and produced similar results. Juveniles (J2) were hatched from the eggs and egg masses in water. Globodera rostochiensis cysts were washed extensively in distilled water. Hatched J2s were obtained by incubating cysts in distilled water for 4 days followed by exposure to potato root diffusate (PRD).
# Approximately 1000 J2s (second juvenile stage) of M. incognita or M. javanica were incubated per well of a 48-well plate with the following active enzyme concentrations (determined by E-64 titration) of papain dissolved in distilled water containing 16 mM L-cysteine (to activate the cysteine proteinase): 1.5 μM, 3 μM, 6.25 μM, 12.5 μM, 25 μM, 50 μM, 75 μM and 100 μM. […] The number of active J2s per well was counted prior to the addition of papain, and then the J2s were incubated in the dark at room temperature for 3 h. The number of mobile J2s per well was counted after 60, 120 and 180 mins. […]
# M. incognita J2 [1] = experiment: In vitro assay of M. incognita J2 present in soil mixtures; format: cell-based; conditions: Triton x-100 (1%), Milk (5%)
# Procedure: The same procedure described above was used to determine the effect of the cysteine proteinases against M. incognita J2 present in soil mixtures. The following soil mixtures were used: fine and coarse sand, peat and fine/coarse sand and loam mix and fine/coarse sand. These soil mixtures were prepared at concentrations of 1:1, 1:3 and 1:6 and autoclaved at […] for 20 min. Peat and loam-mix were obtained from Rothamsted-Research. Soil mixtures were added to 24 well plates (0.5 g) and wetted for 16 hs with either PBS ph 7.2, Tx-100, Milk 5% or cysteine proteinases, in order to wet the soil and block non-specific binding sites present in the soil particles. Then, approximately 100 J2 were added to the wells, followed by cysteine proteinases with 16 mM of L-cysteine to activate the cysteine proteinases or water as control. After 16 hs at room temperature in the dark, individual wells of the 24 well plates were flushed with 1 ml of distilled water to recover the nematodes from the soil mixtures. These were placed in a 24 well plate and the number of dead/live nematodes scored under microscopic observation.
# These in vitro experiments were performed in 24 well plates using sterile soil mixtures to diminish the possibility of biological degradation of the enzyme by microorganisms. […] The number of live nematodes was counted before and after enzyme treatment. […]
# M. incognita J2 [2] = experiment: In planta bioassay, two soil applications: nematode infection of tomato roots; format: in vivo, M. incognita on tomato plants
# Procedure: Oxamyl is supplied as 10% liquid Vydate. 125 μl of a solution 1000 fold dilution of 10% formulation (kindly supplied by DK from NIU) was applied to 5 g of the soil mixture with 16% organic matter, to give a partial nematicidal effect. Soil mixtures were wetted with PBS pH 7.2, 16 hrs prior nematode application of 1000 or 2000 M. incognita J2. Infected soil mixtures were treated with water (control) or 250 μM of active papain in 16 mM of L-cysteine or a combination of Vydate and 250 μM of active papain in 16 mM of L-cysteine. After 48 hs tomato seedlings one month old were added to the treated soils. After 11 days the roots were washed free of soil and chopped to approximately 2 mm pieces. The root pieces of each tomato plant was placed in muslin bags and stained with acid-fuchsin. The stained roots were examined under microscope and all the nematodes present in the roots were counted. […] After 48 hours tomato seedlings one month old were added to the treated soils and after 11 days post infection nematode development inside root tissues was assessed as described above.
# The avermectins are macrocyclic lactones produced by the actinomycete Streptomyces avermitilis. […] After 48 hs tomato seedlings one month old were added to the treated soils and after 11 days post infection nematode development inside root tissues was assessed as described above. […]
# larvae in infected soil = conditions: cited from earlier work
# M. incognita J2 [3] = experiment: In vitro live/dead count of M. incognita J2 in solution without soil (Example 2); format: cell-based
# Procedure: Eggs of M. incognita race 1 from North Carolina State University, USA were collected from tomato-infected roots grown in a glasshouse at 23° C. in a 16:8 h light-dark regime. Eggs were extracted using 1% hypochlorite (NaClO) solution (Hussey and Barker, 1973) or by picking egg masses from tomato-infected roots. Juveniles (J2) were hatched from the eggs and egg masses in water. Heterodera glycines eggs were obtained from soil samples stored in Rothamsted-Research. Second stage juveniles (J2) were hatched from the eggs in water after 10 days. Pratylenchus penetrans were a gift from Dr. Deeren Anne-Marie from the Institute for Agricultural and Fisheries Research, Merelbeke, Belgium. The beneficial nematodes Steinernema feltiae and Heterorhabditis megidis were a gift from Dr. Paul Williams from Becker Underwood. […]
# Control wells were set up which contained J2s and distilled water with 16 mM L-cysteine. […] The actual number of active J2s per well was counted with the aid of an Olympus inverted microscope, prior to the addition of the enzymes, and then the J2s were incubated in the dark at room temperature for 2 hs, 16 hs, 24 hs or 40 hr. The number of live and dead J2s per well was counted after each enzyme incubation. […]
# Pratylenchus penetrans = experiment: In vitro live/dead count of Pratylenchus penetrans; format: cell-based
# Procedure: (§1) Eggs of M. incognita race 1 from North Carolina State University, USA were collected from tomato-infected roots grown in a glasshouse at 23° C. in a 16:8 h light-dark regime. Eggs were extracted using 1% hypochlorite (NaClO) solution (Hussey and Barker, 1973) or by picking egg masses from tomato-infected roots. Juveniles (J2) were hatched from the eggs and egg masses in water. Heterodera glycines eggs were obtained from soil samples stored in Rothamsted-Research. Second stage juveniles (J2) were hatched from the eggs in water after 10 days. Pratylenchus penetrans were a gift from Dr. Deeren Anne-Marie from the Institute for Agricultural and Fisheries Research, Merelbeke, Belgium. The beneficial nematodes Steinernema feltiae and Heterorhabditis megidis were a gift from Dr. Paul Williams from Becker Underwood.
# Control wells were set up which contained J2s and distilled water with 16 mM L-cysteine. Each enzyme concentration and the controls were set up in duplicate (i.e. n=2). […] The number of live and dead J2s per well was counted after each enzyme incubation. The same procedure was followed when setting up further experiments to compare the effects of these enzymes with Heterodera glycines J2, Pratylenchus penetrans, Steinernema feltiae and Heterorhabditis megidis.
# Heterorhabditis megidis = experiment: In vitro effect on the beneficial nematode Heterorhabditis megidis; format: cell-based
# Procedure: as §1
# Control wells were set up which contained J2s and distilled water with 16 mM L-cysteine. Each enzyme concentration and the controls were set up in duplicate (i.e. n=2). The actual number of active J2s per well was counted with the aid of an Olympus inverted microscope, prior to the addition of the enzymes, and then the J2s were incubated in the dark at room temperature for 2 hs, 16 hs, 24 hs or 40 hr. The number of live and dead J2s per well was counted after each enzyme incubation. The same procedure was followed when setting up further experiments to compare the effects of these enzymes with Heterodera glycines J2, Pratylenchus penetrans, Steinernema feltiae and Heterorhabditis megidis.
# The beneficial nematodes Hetorhabditis megidis and Steinernema feltiae were incubated with dilutions of actinidin, bromelain and pappain from papaya latex (see concentrations used in table 3). These nematodes reacted differentially to these cysteine proteinases (Tables 4 and 5). […] S. feltiae were dead at all concentrations of actinidin tested. […] After 16 hs of observation the enzyme solutions were diluted with water (to half of the initial concentrations) however, no change in nematode movement was observed after 24 hs.
# Steinernema feltiae = experiment: In vitro effect on the beneficial nematode Steinernema feltiae; format: cell-based
# Procedure: as §1
# Control wells were set up which contained J2s and distilled water with 16 mM L-cysteine. Each enzyme concentration and the controls were set up in duplicate (i.e. n=2). The actual number of active J2s per well was counted with the aid of an Olympus inverted microscope, prior to the addition of the enzymes, and then the J2s were incubated in the dark at room temperature for 2 hs, 16 hs, 24 hs or 40 hr. The number of live and dead J2s per well was counted after each enzyme incubation. […]
compound,measurement,setting,value
"CC(C)C[C@H](NC(=O)[C@H]1O[C@@H]1C(=O)O)C(=O)NCCCCN=C(N)N (relative stereo) [E-64, L-trans-epoxysuccinyl-leucylamido(4-guanidino)butane, reference compound]",proportion of active worms on addition of E-64,"Meloidogyne spp. J2s; 1 mM E-64, J2s incubated without enzyme",No change in the proportion of active worms
Triton x-100,effect of blocking agents on nematode mobility,M. incognita J2 [1],slightly affected nematode mobility
Abamectin,nematicidal effect (reduction of nematode infection),"M. incognita J2 [2]; nematicide alone, no enzyme",94%
same,larvae development allowed,larvae in infected soil; 300 μl of abamectin solution (100 mg/l) to 50 g of infected soil,0%
same,larvae allowed to develop,larvae in infected soil; 2000 (so in the source) of abamectin solution (100 mg/l) to 50 g of infected soil,75%
stem bromelain,proportion of active Meloidogyne spp. J2s relative to control,Meloidogyne spp. J2s; 25 μM active enzyme,significant reduction; also recorded: Reductions in the proportion of active worms were evident
same,recovery of movement,"M. incognita J2 [3]; after 40 hs of observation, at the nematicidal concentration",not able to recover movement
same,concentration of active bromelain with nematicidal effect,M. incognita J2 [3]; in solution without soil,1 mM
same,concentration of bromelain that killed the nematodes,Pratylenchus penetrans,560 µM
same,recovery of mobility,Pratylenchus penetrans; after 48 hs,no recovery of mobility
same,nematode motility or behaviour,"Heterorhabditis megidis; enzyme concentration A (Table 3): actinidin 3.3 mM, bromelain 2.2 mM, papain 250 uM",All paralysed
same,nematode motility or behaviour,"Heterorhabditis megidis; enzyme concentration B: actinidin 1.7 mM, bromelain 1.1 mM, papain 125 uM",All paralysed
same,nematode motility or behaviour,"Heterorhabditis megidis; enzyme concentration C: actinidin 840 uM, bromelain 560 uM, papain 62.5 uM",All paralysed
same,effect on H. megidis,Heterorhabditis megidis; higher concentrations,paralysed
same,effect on H. megidis,Heterorhabditis megidis; lower concentrations,only affected slightly
same,bromelain concentrations at which no effect was observed,Steinernema feltiae,below 280 uM
same,effect on S. feltiae movement,Steinernema feltiae; high concentrations of bromelain,affected S. feltiae movement slightly
same,reduction of nematode infection of plants,"M. incognita J2 [2]; two soil applications of enzyme (250 μM papain, 2.2 μM bromelain, 3.3 mM actinidin as printed), soil 16% organic matter, 11 days",95%
